Source: US5922756A, “Method of inhibiting nitric oxide synthase” (priority 1998, dated 1999)
Where two headings read alike, the source gives them in different places.

How the values were obtained:
Murine iNOS = target: T1, Murine iNOS (Mus musculus, UniProt P29477); assay: Citrulline assay for iNOS enzyme activity ([3H]arginine to [3H]citrulline); assay type: biochemical; conditions: for remaining activity at 800 µM: read-out: citrulline formation (% of control)
T1 construct: purchased Cayman
Procedure: Murine iNOS was extracted from the RAW 264.7 murine macrophages (from the American Type Culture Collection). The cells were stimulated with 20 units/mL cf IFNγ and 0.5 μg/mL LPS, incubated for 4 hr, and then harvested. The washed cells were lysed in 50 mM MOPS buffer (pH 7.0) which contained 1 mM EGTA, 100 mM NaCl, 0.1% 3-[(3-cholamidopropl)dimethylammonio]-2-hydroxy-1-propanesulfonate (CHAPSO), 0.2 mM phenylmethylsulfonyl fluoride, […], and 1 mM leupeptin. After passing through Sephadex G-100 (Pharmacia) to remove arginine, NADPH, and unbound tetrahydrobiopterin, the supernatant was concentrated by ultrafiltration using Centricon 30 microconcentrators (Amicon) (Forstermann et al. 1994; Wolff and Gribin 1994). Murine iNOS, 100,000 g fraction, was also purchased from Cayman.
(§1) Enzyme inhibition studies for iNOS were conducted in 50 mM HEPES buffer (pH 7.4) containing 1 mM calcium chloride, 1 mM magnesium acetate and […]. [^3 H]arginine (New England Nuclear), tetrahydrobiopterin (Biomol), and EGCG were added at the indicated concentrations. Reactions were terminated by the addition of AG 50WX8 resin (Bio-Rad) in HEPES-EDTA buffer (pH 5.5). Enzyme activity was measured by monitoring the conversion of [^3 H]arginine to [^3 H]citrulline (Hevel and Marletta 1994). Reactions were allowed to occur at 37° C. for 10-20 min since time-course analyses had shown that the reaction was linear under these conditions. Background was determined by the level of radioactivity in a reaction mixture from which iNOS was omitted. This amount was subtracted from the level detected in the experimental samples. Enzyme activity, i.e. the amount of citrulline formed, was deduced from the specific activity of the [^3 H]arginine.
Purification of tea catechin polyphenols was performed according to Xie et al. (1993). Enzyme preparation and assay were followed as described in the Methods section of Example 2.

iNOS mRNA expression = assay: iNOS gene expression by relative RT-PCR in LPS- and IFNγ-activated mouse peritoneal cells; assay type: cell-based; conditions: 4 hr after LPS + IFNγ stimulation, read-out: iNOS mRNA expression reduced to (% of control, iNOS/GAPDH ratio)
Procedure: (§2) Non-elicited peritoneal exudate cells were obtained from BALB/c mice (Jackson Laboratories) and were cultured at 10^6 /mL as described by Chan et al. (1995). They were stimulated by the addition of 0.01 μg/mL LPS from Salmonella typhosa (Difco Laboratories) and 10 units/mL of IFNγ. At 4 hr after stimulation, total RNA was isolated with a Purescript RNA isolation kit (Gentra). RT-PCR was performed to determine the level of iNOS gene expression. From each sample, 300 ng of RNA was reverse-transcribed using 100 units MMLV reverse transcriptase, 20 units RNase inhibitor, 0.6 mM dNTP, and 0.4 mM Oligo(dT16) (Promega). Then PCR analyses were performed on the aliquots of the cDNA preparations for detecting iNOS and glyceraldehyse 3-phosphate dehydrogenase (GAPDH) gene expression. The reactions occurred in a 50 μL volume, for 23 cycles, with 10 mM Tris-HCl, pH 8.3, 50 mM KCl, 1.5 mM MgCl2, 0.3 mM dNTP, 2.0 units of Taq DNA polymerase, and 50 pmol of 5' and 3' primers. Murine iNOS and GAPDH 5' and 3' primers were purchased from Clontech and used according to manufactures protocols. The products were then separated on 1.6% agarose gel, stained with ethidium bromide, and the intensity of the bands was determined by scanning (Siebert and Kellogg 1995).

[1] = target: T2, neuronal nitric oxide synthase (nNOS) (Mus musculus, UniProt Q9Z0J4); assay: Citrulline assay for neuronal NOS enzyme activity (mouse brain 100,000 g fraction); assay type: biochemical; conditions: 0.135 μM arginine, 125 μM tetrahydrobiopterin, read-out: nNOS citrulline formation inhibited by (% compared with control)
T2 construct: fresh brains from BALB/c mice were homogenized; from tissue; host or cells: brain of BALB/c mice, 100,000 g fraction passed through Sephadex G-100
Procedure: as §1
Purification of EGCG was performed according to Xie et al. (1993). Neuronal NOS sample preparation and enzyme activity assay were described in the Methods section of Example 2, with the following modifications. For nNOS, fresh brains from BALB/c mice were homogenized in a 5-fold volume of 50 mM Tris-HCl (pH 7.5) that contained 1 mM EDTA, 5 mM 2-mercaptoethanol and then were centrifuged at 100,000 g for 1 hr, and then the sample was passed through the Sephadex G-100 column. For the nNOS enzyme assay, 5 μM flavin mononucleotide, 5 μM flavin adenine dinucleotide, 10 μg/mL calmodulin (Calbiochem) and 1.25 mM DTT were incorporated in the reaction mixture.

NO production = conditions: LPS- and IFNγ-induced mouse peritoneal cells; Chan et al. 1995; cited from earlier work
GAPDH mRNA expression = assay: GAPDH (housekeeping gene) mRNA expression by RT-PCR in activated mouse peritoneal cells; assay type: cell-based; conditions: EGCG 1-10 μM, housekeeping gene control
Procedure: as §2

[2] = read-out: citrulline formation inhibited to (% of control)
[3] = 800 μM compound, 0.270 μM arginine, 125 μM tetrahydrobiopterin, 126 pmol/min iNOS

remaining activity at 800 µM (Murine iNOS; [3]) | Structure (SMILES) | EC50 (Murine iNOS) | Ki (Murine iNOS) | pattern of inhibition with respect to substrate arginine (Dixon plot) (Murine iNOS; 100-600 μM EGCG, 0.068-0.270 μM arginine) | pattern of inhibition with respect to cofactor tetrahydrobiopterin (Dixon plot) (Murine iNOS; 100-600 μM EGCG, 12-125 μM tetrahydrobiopterin) | remaining activity at 800 µM (Murine iNOS) | inhibition at 50 µM (Murine iNOS; [2]) | inhibition at 250 µM (Murine iNOS; [2]) | inhibition at 500 µM (Murine iNOS; [2]) | inhibition at 750 µM (Murine iNOS; [2]) | mrna remaining at 1 µM (iNOS mRNA expression; 1 μM EGCG) | mrna remaining at 3 µM (iNOS mRNA expression; 3 μM EGCG) | mrna remaining at 5 µM (iNOS mRNA expression; 5 μM EGCG) | mrna remaining at 10 µM (iNOS mRNA expression; 10 μM EGCG) | inhibition at 200 µM ([1]; 200 μM EGCG) | inhibition at 400 µM ([1]; 400 μM EGCG) | inhibition at 600 µM ([1]; 600 μM EGCG) | NO production measured by nitrite accumulation in the culture medium (NO production) | reduction in mRNA expression of GAPDH (GAPDH mRNA expression)
– | O=C(O[C@@H]1Cc2c(O)cc(O)cc2O[C@@H]1c1cc(O)c(O)c(O)c1)c1cc(O)c(O)c(O)c1 [EGCG, Epigallocatechin-3-gallate] | 150 µM | 130 µM | competitive pattern of inhibition | competitive manner | 62% | 85% | 40% | 27% | 14% | 82% | 74% | 41% | 14% | 79% | 51% | 56% | reduces NO production | not observed
68% | O=C(O[C@@H]1Cc2c(O)cc(O)cc2O[C@@H]1c1ccc(O)c(O)c1)c1cc(O)c(O)c(O)c1 [ECG, epicatechin-gallate] | – | – | – | – | – | – | – | – | – | – | – | – | – | – | – | – | – | –
96% | Oc1cc(O)c2c(c1)O[C@H](c1cc(O)c(O)c(O)c1)[C@H](O)C2 [EGC, epigallocatechin] | – | – | – | – | – | – | – | – | – | – | – | – | – | – | – | – | – | –
